Laboratory results taken from patent US10294234B2, “HIV inhibitor compounds” (priority 2017, dated 2019).
pEC50: −log10 of the molar value. Where two headings read alike, the source gives them in different places.

Key:
[1] = test system: HIV-1 (IIIB) in MT-4 cells; assay: MT-4 HIV assay; type: cell-based; conditions: HIV-1 (IIIB), MT-4 cells, 5 days, Cell Titer Glo, read-out: EC50
Summary of the method: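 MT-4 cells infected with HIV-1 IIIB (1:250 stock dilution) were incubated with 1:3 serially diluted compounds in RPMI with 10% FBS for 5 days at 37 °C. Cell Titer Glo luminescence was the readout. Plates included mock-infected wells, no-drug wells and 5 uM AZT controls.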

[2] = Method: Liver Microsomal Stability Protocol
Test compounds and one control compound (verapamil) were tested in 3 different species in duplicate sets.
Test compound concentration: 1 uM; Protein concentration: 0.5 mg/mL (for dog, rat, and human liver microsomes); Cofactor: NADPH-Regenerating system (NRS) solution; Time-points: 2, 12, 25, 45, and 65 minutes.
Reaction composition (in each incubation well) contains:
After plates were vortexed, they were centrifuged for 30 minutes to remove proteins. About 100 μL supernatant was removed to a new plate and diluted with 150 μL water. About 20 μL of the mixture was injected into LC/MS/MS system to monitor the compound's response. In vitro measured t1/2 was used to calculate Clint values.

[3] = Human immunodeficiency virus 1, MT4, 120 h
[4] = human liver microsomes 0.5 mg/mL, 1 uM compound, NADPH
[5] = rat liver microsomes 0.5 mg/mL, 1 uM compound, NADPH

Human Pred Cl. [2, 4] [L/H/kg] | Compound | pEC50 [1, 3] | Human Pred Cl. ([2]; human, microsomes) [L/H/kg] | Rat. Pred. Cl. ([2]; rat, microsomes) [L/H/kg] | other results
<0.11 | COC(=O)N[C@H](C(=O)N[C@@H](Cc1ccc(C#Cc2cnc(N3C[C@H]4C[C@@H]3CN4C3COC3)nc2)cc1)[C@@H](O)CN(Cc1c(F)cc(-c2ccn(C3CC3)n2)cc1F)NC(=O)[C@@H](NC(=O)OC)C(C)(C)C(F)(F)F)C(C)(C)C(F)(F)F [Example 31, Methyl ((5S,8S,9S,14S)-11-(4-(1-cyclopropyl-1H-pyrazol-3-yl)-2,6-difluorobenzyl)-16,16,16-trifluoro-9-hydroxy-15,15-dimethyl-8-(4-((2-((1R,4R)-5-(oxetan-3-yl)-2,5-diazabicyclo[2.2.1]heptan-2-yl)pyrimidin-5-yl)ethynyl)benzyl)-3,6,13-trioxo-5-(1,1,1-trifluoro-2-methylpropan-2-yl)-2-oxa-4,7,11,12-tetraazahexadecan-14-yl)carbamate] | 8.51 | – | – | Rat. Pred. Cl. [2, 5]: 0.75 L/H/kg
– | COC(=O)N[C@H](C(=O)N[C@@H](Cc1ccc(C#Cc2ccc(N3CC4CCC(C3)N4C3COC3)nc2)cc1)[C@@H](O)CN(Cc1ccc(-c2ccn(C(F)F)n2)cc1)NC(=O)[C@@H](NC(=O)OC)C(C)(C)C(F)(F)F)C(C)(C)C(F)(F)F [Example 158, Methyl ((5S,8S,9S,14S)-11-(4-(1-(difluoromethyl)-1H-pyrazol-3-yl)benzyl)-16,16,16-trifluoro-9-hydroxy-15,15-dimethyl-8-(4-((6-(8-(oxetan-3-yl)-3,8-diazabicyclo[3.2.1]octan-3-yl)pyridin-3-yl)ethynyl)benzyl)-3,6,13-trioxo-5-(1,1,1-trifluoro-2-methylpropan-2-yl)-2-oxa-4,7,11,12-tetraazahexadecan-14-yl)carbamate] | 8.36 | <0.11 | 0.22 | –
0.92 | COC(=O)N[C@H](C(=O)NN(Cc1c(F)cc(-c2ccn(C(F)F)n2)cc1F)C[C@H](O)[C@H](Cc1ccc(-c2cnn(C(F)F)c2)cc1)NC(=O)[C@@H](NC(=O)OC)C(C)(C)C(F)(F)F)C(C)(C)C [Example 218, Methyl ((5S,8S,9S,14S)-11-(4-(1-(difluoromethyl)-1H-pyrazol-3-yl)-2,6-difluorobenzyl)-8-(4-(1-(difluoromethyl)-H-pyrazol-4-yl)benzyl)-9-hydroxy-15,15-dimethyl-3,6,13-trioxo-5-(1,1,1-trifluoro-2-methylpropan-2-yl)-2-oxa-4,7,11,12-tetraazahexadecan-14-yl)carbamate] | 8.52 | – | – | Rat. Pred. Cl. [2, 5]: 0.45 L/H/kg
– | COC(=O)N[C@H](C(=O)N[C@@H](Cc1ccc(C#Cc2ccc(N3CC4COCC(C3)N4C)nc2)cc1)[C@@H](O)CN(Cc1c(F)cc(-c2ccn(C3CC3)n2)cc1F)NC(=O)[C@@H](NC(=O)OC)C(C)(C)C(F)(F)F)C(C)(C)C(F)(F)F [Example 35] | 8.45 | <0.11 | 2.1 | Dog. Pred. Cl. ([2]; dog, microsomes): 1.74 L/H/kg
– | COC(=O)N[C@H](C(=O)N[C@@H](Cc1ccc(C#Cc2ccc(N3C4CCC3CN(C3COC3)C4)nc2)cc1)[C@@H](O)CN(Cc1c(F)cc(-c2cnn(C(F)F)c2)cc1F)NC(=O)[C@@H](NC(=O)OC)C(C)(C)C(F)(F)F)C(C)(C)C(F)(F)F [Example 19, methyl ((5S,8S,9S,14S)-11-(4-(1-(difluoromethyl)-1H-pyrazol-4-yl)-2,6-difluorobenzyl)-16,16,16-trifluoro-9-hydroxy-15,15-dimethyl-8-(4-((6-(3-(oxetan-3-yl)-3,8-diazabicyclo[3.2.1]octan-8-yl)pyridin-3-yl)ethynyl)benzyl)-3,6,13-trioxo-5-(1,1,1-trifluoro-2-methylpropan-2-yl)-2-oxa-4,7,11,12-tetraazahexadecan-14-yl)carbamate] | 8.07 | <0.11 | 0.29 | –
– | COC(=O)N[C@H](C(=O)N[C@@H](Cc1ccc(C#Cc2ccc(N3CC4CCC(C3)N4C)nc2)cc1)[C@@H](O)CN(Cc1c(F)cc(-c2cnn(C(F)F)c2)cc1F)NC(=O)[C@@H](NC(=O)OC)C(C)(C)C(F)(F)F)C(C)(C)C(F)(F)F [Example 168, Methyl ((5S,8S,9S,14S)-11-(4-(1-(difluoromethyl)-1H-pyrazol-4-yl)-2,6-difluorobenzyl)-16,16,16-trifluoro-9-hydroxy-15,15-dimethyl-8-(4-((6-(8-methyl-3,8-diazabicyclo[3.2.1]octan-3-yl)pyridin-3-yl)ethynyl)benzyl)-3,6,13-trioxo-5-(1,1,1-trifluoro-2-methylpropan-2-yl)-2-oxa-4,7,11,12-tetraazahexadecan-14-yl)carbamate] | 8.26 | 0.19 | 2.42 | –
– | COC(=O)N[C@H](C(=O)N[C@@H](Cc1ccc(C#Cc2ccc(N3CC4CCC(C3)N4[C@H]3CCOC3)nc2)cc1)[C@@H](O)CN(Cc1c(F)cc(-c2ccn(C(F)F)n2)cc1F)NC(=O)[C@@H](NC(=O)OC)C(C)(C)C(F)(F)F)C(C)(C)C(F)(F)F [Example 142, Methyl ((5S,8S,9S,14S)-11-(4-(1-(difluoromethyl)-1H-pyrazol-3-yl)-2,6-difluorobenzyl)-16,16,16-trifluoro-9-hydroxy-15,15-dimethyl-3,6,13-trioxo-8-(4-((6-(8-((S)-tetrahydrofuran-3-yl)-3,8-diazabicyclo[3.2.1]octan-3-yl)pyridin-3-yl)ethynyl)benzyl)-5-(1,1,1-trifluoro-2-methylpropan-2-yl)-2-oxa-4,7,11,12-tetraazahexadecan-14-yl)carbamate] | 8.06 | – | – | –
– | COC(=O)N[C@H](C(=O)NN(Cc1ccc(-c2cnn(C(F)F)c2)cc1)C[C@H](O)[C@H](Cc1ccc(C#Cc2ccc(N3CC4CCC(C3)N4C3COC3)nc2)cc1)NC(=O)[C@@H](NC(=O)OC)C(C)(C)C(F)(F)F)C(C)(C)C [Example 243, methyl ((5S,8S,9S,14S)-11-(4-(1-(difluoromethyl)-1H-pyrazol-4-yl)benzyl)-9-hydroxy-15,15-dimethyl-8-(4-((6-(8-(oxetan-3-yl)-3,8-diazabicyclo[3.2.1]octan-3-yl)pyridin-3-yl)ethynyl)benzyl)-3,6,13-trioxo-5-(1,1,1-trifluoro-2-methylpropan-2-yl)-2-oxa-4,7,11,12-tetraazahexadecan-14-yl)carbamat] | 8.27 | – | – | –
– | COC(=O)N[C@H](C(=O)N[C@@H](Cc1ccc(C#Cc2ccc(N3CC4CCC(C3)N4C3COC3)nc2)cc1)[C@@H](O)CN(Cc1c(F)cc(-c2ccccn2)cc1F)NC(=O)[C@@H](NC(=O)OC)C(C)(C)C)C(C)(C)C [Example 84, Methyl ((5S,8S,9S,14S)-5-(tert-butyl)-11-(2,6-difluoro-4-(pyridin-2-yl)benzyl)-9-hydroxy-15,15-dimethyl-8-(4-((6-(8-(oxetan-3-yl)-3,8-diazabicyclo[3.2.1]octan-3-yl)pyridin-3-yl)ethynyl)benzyl)-3,6,13-trioxo-2-oxa-4,7,11,12-tetraazahexadecan-14-yl)carbamate] | 8.49 | – | – | –

Compound | Human Pred Cl. [2, 4] [L/H/kg] | pEC50 [1, 3] | Human Pred Cl. ([2]; human, microsomes) [L/H/kg] | Rat. Pred. Cl. ([2]; rat, microsomes) [L/H/kg] | other results
Methyl ((5S,8S,9S,14S)-8-(4-((6-(3,8-diaza bicyclo[3.2.1]octan-3-yl)pyridin-3-yl)ethynyl)benzyl)-1-(4-(1-(difluoromethyl)-1H-pyrazol-3-yl)-2,6-difluorobenzyl)-16,16,16-trifluoro-9-hydroxy-15,15-dimethyl-3,6,13-trioxo-5-(1,1,1-trifluoro-2-methylpropan-2-yl)-2-oxa-4,7,11,12-tetraazahexadecan-14-yl)carbamate 2,2,2-trifluoroacetate [Example 161] | <0.11 | – | – | – | pEC50 [1]: 7.85
